Legend:
[1] = test system: MOLT-4; experiment: panel of 60 human tumor cell lines, growth inhibition (Leukemia); conditions: MOLT-4
[2] = test system: MDA-MB-435; experiment: panel of 60 human tumor cell lines, growth inhibition (Melanoma); conditions: MDA-MB-435
[3] = test system: SK-MEL-5; experiment: as above; conditions: 8K-MEL-5
[4] = test system: SF-539; experiment: panel of 60 human tumor cell lines, growth inhibition (CNS Cancer); conditions: SF-539
[5] = test system: SNB-19; experiment: as above; conditions: SNB-19
[6] = test system: HCC-2998; experiment: panel of 60 human tumor cell lines, growth inhibition (Colon Cancer); conditions: HCC-2998
[7] = test system: HCT-15; experiment: as above; conditions: HCT-15
[8] = test system: ACHN; experiment: panel of 60 human tumor cell lines, growth inhibition (Renal Cancer)
[9] = test system: RXF 393; experiment: as above; conditions: RXF 393
[10] = test system: UO-31; experiment: as above; conditions: UO-31
[11] = test system: MCF7; experiment: panel of 60 human tumor cell lines, growth inhibition (Breast Cancer); conditions: MCF7
[12] = test system: BT-549; experiment: as above; conditions: BT-549
[13] = test system: T-47D; experiment: as above; conditions: T-47D
[14] = test system: IGROV1; experiment: panel of 60 human tumor cell lines, growth inhibition (Ovarian Cancer); conditions: IGROVI
[15] = test system: SK-OV-3; experiment: as above; conditions: SK-OV-3
[16] = test system: HOP-92; experiment: panel of 60 human tumor cell lines, growth inhibition (Non-Small Cell Lung Cancer); conditions: HOP-92
[17] = test system: NCI-H23; experiment: as above; conditions: NCI-H23
[18] = test system: NCI-H322M; experiment: as above
[19] = test system: NCI-H460; experiment: as above; conditions: NCI-H460

## C=C1C(=O)O[C@H]2[C@H]1CC/C(COC(=O)N1CCC(F)(F)CC1)=C\CC[C@@]1(C)O[C@@H]21 [JVM 2-66]
[1]
  GI50: 2050 nM
  TGI: 5.71E−6
[1]; Log10 Concentration −4.0
  Percent Growth: −39%
[1]; Log10 Concentration −5.0
  Percent Growth: −27%
[1]; Log10 Concentration −6.0
  Percent Growth: 85%
[1]; Log10 Concentration −7.0
  Percent Growth: 85%
[1]; Log10 Concentration −8.0
  Percent Growth: 94%
[2]
  GI50: 464 nM
  TGI: 1.89E−5
[2]; Log10 Concentration −4.0
  Percent Growth: −52%
[2]; Log10 Concentration −5.0
  Percent Growth: 20%
[2]; Log10 Concentration −6.0
  Percent Growth: 30%
[2]; Log10 Concentration −7.0
  Percent Growth: 91%
[2]; Log10 Concentration −8.0
  Percent Growth: 98%
[3]
  GI50: 3810 nM
  TGI: 1.50E−5
[3]; Log10 Concentration −4.0
  Percent Growth: −96%
[3]; Log10 Concentration −5.0
  Percent Growth: 21%
[3]; Log10 Concentration −6.0
  Percent Growth: 91%
[3]; Log10 Concentration −7.0
  Percent Growth: 99%
[3]; Log10 Concentration −8.0
  Percent Growth: 99%
[4]
  GI50: 1980 nM
  TGI: 459E−6
[4]; Log10 Concentration −4.0
  Percent Growth: −88%
[4]; Log10 Concentration −5.0
  Percent Growth: −46%
[4]; Log10 Concentration −6.0
  Percent Growth: 90%
[4]; Log10 Concentration −7.0
  Percent Growth: 85%
[4]; Log10 Concentration −8.0
  Percent Growth: 96%
[5]
  GI50: 12800 nM
  TGI: 2.84E−5
[5]; Log10 Concentration −4.0
  Percent Growth: −79%
[5]; Log10 Concentration −5.0
  Percent Growth: 66%
[5]; Log10 Concentration −6.0
  Percent Growth: 89%
[5]; Log10 Concentration −7.0
  Percent Growth: 91%
[5]; Log10 Concentration −8.0
  Percent Growth: 93%
[6]
  GI50: 6240 nM
  TGI: 2.11E−5
[6]; Log10 Concentration −4.0
  Percent Growth: −77%
[6]; Log10 Concentration −5.0
  Percent Growth: 37%
[6]; Log10 Concentration −6.0
  Percent Growth: 101%
[6]; Log10 Concentration −7.0
  Percent Growth: 91%
[6]; Log10 Concentration −8.0
  Percent Growth: 96%
[7]
  GI50: 1470 nM
  TGI: 3.84E−6
[7]; Log10 Concentration −4.0
  Percent Growth: −86%
[7]; Log10 Concentration −5.0
  Percent Growth: −50%
[7]; Log10 Concentration −6.0
  Percent Growth: 70%
[7]; Log10 Concentration −7.0
  Percent Growth: 94%
[7]; Log10 Concentration −8.0
  Percent Growth: 100%
[8]
  GI50: 1790 nM
  TGI: 5.68E−6
[8]; Log10 Concentration −4.0
  Percent Growth: −83%
[8]; Log10 Concentration −5.0
  Percent Growth: −25%
[8]; Log10 Concentration −6.0
  Percent Growth: 75%
[8]; Log10 Concentration −7.0
  Percent Growth: 93%
[8]; Log10 Concentration −8.0
  Percent Growth: 103%
[8]; read-out: LC50
  CC50: 27400 nM
[9]
  GI50: 1200 nM
  TGI: 2.53E−6
[9]; Log10 Concentration −4.0
  Percent Growth: −92%
[9]; Log10 Concentration −5.0
  Percent Growth: −92%
[9]; Log10 Concentration −6.0
  Percent Growth: 62%
[9]; Log10 Concentration −7.0
  Percent Growth: 95%
[9]; Log10 Concentration −8.0
  Percent Growth: 100%
[10]
  GI50: 1990 nM
  TGI: 5.44E−6
[10]; Log10 Concentration −4.0
  Percent Growth: −88%
[10]; Log10 Concentration −5.0
  Percent Growth: −30%
[10]; Log10 Concentration −6.0
  Percent Growth: 84%
[10]; Log10 Concentration −7.0
  Percent Growth: 86%
[10]; Log10 Concentration −8.0
  Percent Growth: 80%
[11]
  GI50: 1620 nM
  TGI: 4.91E−6
[11]; Log10 Concentration −4.0
  Percent Growth: −75%
[11]; Log10 Concentration −5.0
  Percent Growth: −32%
[11]; Log10 Concentration −6.0
  Percent Growth: 72%
[11]; Log10 Concentration −7.0
  Percent Growth: 83%
[11]; Log10 Concentration −8.0
  Percent Growth: 89%
[12]
  GI50: 2690 nM
  TGI: 8.54E−6
[12]; Log10 Concentration −4.0
  Percent Growth: −99%
[12]; Log10 Concentration −5.0
  Percent Growth: −7%
[12]; Log10 Concentration −6.0
  Percent Growth: 93%
[12]; Log10 Concentration −7.0
  Percent Growth: 98%
[12]; Log10 Concentration −8.0
  Percent Growth: 100%
[13]
  GI50: 3070 nM
  TGI: 1.64E−5
[13]; Log10 Concentration −4.0
  Percent Growth: −45%
[13]; Log10 Concentration −5.0
  Percent Growth: 13%
[13]; Log10 Concentration −6.0
  Percent Growth: 86%
[13]; Log10 Concentration −7.0
  Percent Growth: 84%
[13]; Log10 Concentration −8.0
  Percent Growth: 93%
[14]
  GI50: 2310 nM
  TGI: 7.26E−6
[14]; Log10 Concentration −4.0
  Percent Growth: −60%
[14]; Log10 Concentration −5.0
  Percent Growth: −14%
[14]; Log10 Concentration −6.0
  Percent Growth: 87%
[14]; Log10 Concentration −7.0
  Percent Growth: 106%
[14]; Log10 Concentration −8.0
  Percent Growth: 107%
[15]
  GI50: 16200 nM
  TGI: 3.22E−5
[15]; Log10 Concentration −4.0
  Percent Growth: −83%
[15]; Log10 Concentration −5.0
  Percent Growth: 85%
[15]; Log10 Concentration −6.0
  Percent Growth: 100%
[15]; Log10 Concentration −7.0
  Percent Growth: 92%
[15]; Log10 Concentration −8.0
  Percent Growth: 100%
[16]
  GI50: 1450 nM
  TGI: 3.89E−6
[16]; Log10 Concentration −4.0
  Percent Growth: −94%
[16]; Log10 Concentration −5.0
  Percent Growth: −48%
[16]; Log10 Concentration −6.0
  Percent Growth: 69%
[16]; Log10 Concentration −7.0
  Percent Growth: 92%
[16]; Log10 Concentration −8.0
  Percent Growth: 95%
[17]
  GI50: 2590 nM
  TGI: 8.51E−6
[17]; Log10 Concentration −4.0
  Percent Growth: −70%
[17]; Log10 Concentration −5.0
  Percent Growth: −7%
[17]; Log10 Concentration −6.0
  Percent Growth: 98%
[17]; Log10 Concentration −7.0
  Percent Growth: 96%
[17]; Log10 Concentration −8.0
  Percent Growth: 93%
[18]
  GI50: 13000 nM
  TGI: 2.66E−5
[18]; Log10 Concentration −4.0
  Percent Growth: −92%
[18]; Log10 Concentration −5.0
  Percent Growth: 68%
[18]; Log10 Concentration −6.0
  Percent Growth: 102%
[18]; Log10 Concentration −7.0
  Percent Growth: 99%
[18]; Log10 Concentration −8.0
  Percent Growth: 96%
[19]
  GI50: 13300 nM
  TGI: 3.10E−5
[19]; Log10 Concentration −4.0
  Percent Growth: −69%
[19]; Log10 Concentration −5.0
  Percent Growth: 67%
[19]; Log10 Concentration −6.0
  Percent Growth: 99%
[19]; Log10 Concentration −7.0
  Percent Growth: 101%
[19]; Log10 Concentration −8.0
  Percent Growth: 100%
